These results are taken from patent publication US20220204531A1, “DIBORONIC ACID COMPOUNDS AND METHODS OF MAKING AND USING THEREOF” (The Regents of The University of California, priority 2020, published 2022).

Data set [1] in a line: Effect of interference sugars on DBA2+ based conductimetric sensor (solution resistance). The conditions noted are these: interference sugar 1 mM (maltose 10 mM), relative to resistance with glucose alone. The method, then: To a reservoir in a device set up as depicted shown in FIG. 3, 1 mL of the initial testing solution (2 mM DBA2+P and 2.5 mM Na3PO4, pH=7.6) was added. Direct current voltage is 0 mV due to the same material for two electrodes. Alternating current voltage was set at 20 mV, and the impedance was scanned vs. frequency from 10 Hz to 10 MHz (FIGS. 4A-4C). At 0.1 MHz, the capacitive reactance is very small compared to the resistance (R) of the solution, and thus this frequency was used for the following tests.
To the testing solution, trace quantities (2-5 μL) of a concentrated (0.5 or 2 M) glucose aqueous solution were continuously added. Glucose solutions were added every 30 minutes with concentrations spanning the diabetes-relevant range, (i.e. [glucose]=0-30 mM). The resistance of solution vs. time was collected for 30 min after each addition. After adding glucose to 30 mM, the testing solution was diluted to 12 mM by adding 1.5 mL of fresh testing solution. 1.5 mL was then discharged after mixing and the resistance of the remaining 1 mL solution was monitored.
Interference effects from other sugars, i.e. fructose, galactose, maltose, and lactose, were examined. Tests were performed at two different glucose concentrations typically experienced in diabetes, 5 mM (i.e. a physiological concentration of glucose) and 20 mM (i.e. a pathophysiological concentration of glucose) in 1 mL of testing solution. In these tests, interferent concentrations were higher or equal to 2.5 times the maximum plasma concentration (MPC). To the testing solution containing glucose, 2 μL or 5 μL of one of the interference solutions (containing fructose, galactose, maltose, or lactose) were added and the solution resistance (R) was monitored. The interference by 1 mM fructose or galactose was tested due to the considerable high affinity compared to the other […].

The conditions of data set [2]: maximum physiological or therapeutic plasma concentration, cited from earlier work.
The nature of data set [3]: pKa measurement by absorbance at 280 nm as a function of pH. Type of data set: physicochemical. As to conditions: for pKa: aqueous buffer solutions in 96-well microplate, 1 mM DBA2+Br, absorbance at 280 nm vs pH. The method, then: 100 mM buffer solutions for titration from pH 4 to pH 11.5 were prepared with different buffer systems to ensure the accuracy of pH for the following tests. NaAc/HAc was prepared for pH 4.05, 4.53, 5.03 and 5.53; Na2HPO4/NaH2PO4 was prepared for pH 6.00, 6.51, 6.99 and 7.51; NaB(OH)4/B(OH)3 was prepared for pH 8.05, 8.56 9.03 and 9.53; Na2CO3/NaHCO3 was prepared for pH 10.01, 10.54, 11.01 and 11.49.
50 μL of buffer solutions at different pH was added into 96 microplate wells. Then 50 μL of 2 mM DBA2+Br or a mixture of 2 mM DBA2+Br and 400 mM glucose in water was added to each well.
After shaking for 10 s and waiting for 10 min, the absorbance of each well at 280 nm was recorded on a microplate reader.
Due to the interaction between borate and glucose, the pH of the borate buffer solution is changed and thus the data for DBA2+Br/Glucose from pH 8 to 9.5 were abandoned. The rest of the data was plotted in Origin. The equilibrium equation for DBA2+ is as follows: […]
Then equation (4) is used for non-linear fitting in Origin, and pKa is defined as the pH at which half of the boronic acid is in the anionic state:
The same non-linear curve fitting also was used for the determination of pKa of DBAG2+G which has equilibrium equation as follow: […]
The pKa of DBA2+ before and after glucose binding was determined based on the differences in absorption spectra upon formation of tetrahedral borate anion in high pH media (Springsteen, et al., Tetrahedron, 58:5291-5300 (2002)).
pKa values were determined by curve fitting the changes in absorbance as a function of pH (FIG. 1).

The nature of data set [4]: Dissociation constant (Kd) by UV absorbance titration at 280 nm, glucose. Type of data set: binding. As to conditions: 1 mM DBA2+Br, 50 mM phosphate buffer pH 7.4. The procedure:
100 μL of glucose aqueous solutions with two-fold serial dilutions from 1024 mM to 0.5 mM were added into a 96 well microplate. Then 100 μL of 2 mM DBA2+Br in 100 mM phosphate buffer (pH=7.4) was added. After shaking for 10 s and waiting for 30 min, the absorbance of each well at 280 nm was recorded on a microplate reader.
(§1) The affinity and selectivity of DBA+ to glucose were then tested by comparing affinity with other five mono- or di-saccharides, particularly fructose, galactose, maltose, sucrose, and lactose. The UV absorption changes at 280 nm of DBA+ with the increase of sugar concentration was used for the affinity calculation. The absorbance values of 1 mM DBA+Br at 280 nm as function of sugar concentrations from 0 to 512 mM were measured in 50 mM Phosphate PBS (pH=7.4).
The titration data was plotted. The disassociation equation for complex DBAG is as follows: […]
where DBAG refers to all three possible complexes, DBA2+G, DBA1+G and DBA-G, and DBA2 refers to all the unbound molecules, DBA2+, DBA1+ and DBA0.
(§2) where sqrt refers to the square root 11 Equation (11) is used for non-linear fitting in Origin to obtain the Kd values.
(§3) The disassociation constant (Kd) of DBA2+ was calculated through non-linear curve fitting according to previous work (Stootman, et al., Analyst, 131:1145-1151 (2006)).

The nature of data set [5]: Dissociation constant (Kd) by UV absorbance titration at 280 nm, fructose. The class given is binding. As to conditions: 1 mM DBA2+Br, 50 mM phosphate buffer pH 7.4. The procedure:
as §1, §2, §3

The nature of data set [6]: Dissociation constant (Kd) by UV absorbance titration at 280 nm, galactose. Type of data set: binding. As to conditions: 1 mM DBA2+Br, 50 mM phosphate buffer pH 7.4. The method, then:
as §1, §2, §3

The nature of data set [7]: Dissociation constant (Kd) by UV absorbance titration at 280 nm, maltose. Type of data set: binding. The conditions noted are these: 1 mM DBA2+Br, 50 mM phosphate buffer pH 7.4. The procedure:
as §1, §2, §3

The nature of data set [8]: Dissociation constant (Kd) by UV absorbance titration at 280 nm, sucrose. Type of data set: binding. The conditions noted are these: 1 mM DBA2+Br, 50 mM phosphate buffer pH 7.4. The procedure: as §1, §2, §3
Data set [9] is described as follows: Dissociation constant (Kd) by UV absorbance titration at 280 nm, lactose. As to conditions: 1 mM DBA2+Br, 50 mM phosphate buffer pH 7.4. The class given is binding. The procedure: as §1, §2, §3
Where [10] appears, read: testing solution with 5 mM glucose.
The mark [11] stands for this setting: testing solution with 20 mM glucose.
The mark [12] stands for this setting: presence of 200 mM glucose (DBA-G), read-out: pKa in the presence of glucose.

Several values for one entry are separate records, joined by “and”; a condition that tells them apart may be missing. Equal entries are not always repeated. Where two headings read alike, the source gives them in different places.

For the molecule `OC[C@H]1O[C@@H](O[C@H]2[C@H](O)[C@@H](O)C(O)O[C@@H]2CO)[C@H](O)[C@@H](O)[C@H]1O` (some centres unmarked) [Lactose, lactose], the figures for the Resistance increase in data set [1] (setting [10]) and in data set [1] (setting [11]) were 0.2% and 1.6%, respectively. For the same molecule, the “Max plasma [sugar]” value in data set [2] is 0.015 mM.

A word on the pKa: it is the negative logarithm of the acid dissociation constant. For the molecule `C[N+]1(C)Cc2ccc(cc2)C[N+](C)(C)Cc2ccccc2[B-]2(O)OC3OC4CO[B-](O)(OC4C(O)C3O2)c2ccccc2C1` (centres unmarked) [DBA-G], in data set [3] (setting [12]), the pKa came to 6.3.

For `OC[C@H]1O[C@H](O[C@H]2[C@H](O)[C@@H](O)[C@H](O)O[C@@H]2CO)[C@H](O)[C@@H](O)[C@@H]1O` [Maltose, maltose], the Resistance increase in data set [1] (setting [10]) was 0.4%; in data set [1] (setting [11]), 1.6%. In addition, in data set [2], the “Max plasma [sugar]” value is listed as 3.5 mM.

For `O=C(CO)[C@@H](O)[C@H](O)[C@H](O)CO` [Fructose, fructose], the Resistance increase in data set [1] (setting [10]) is 3% and 2.9%; in [1] (setting [11]), −0.3%. Besides, the “Max plasma [sugar]” value is given as 0.133 mM in data set [2] and 0.13 mM in data set [2] (listed as fructose).

Consider `O=C[C@H](O)[C@@H](O)[C@@H](O)[C@H](O)CO` [Galactose, galactose], for which the Resistance increase in [1] (setting [10]) is given as 1.4%; in data set [1] (setting [11]) it was 0.6%. Moreover, the “Max plasma [sugar]” value in [2] was 0.28 mM.

As usually defined, the Kd is the constant that tells how readily two partners part at equilibrium. Low values mean tighter binding, high ones weaker binding. Take `C[N+](C)(Cc1ccc(C[N+](C)(C)Cc2ccccc2B(O)O)cc1)Cc1ccccc1B(O)O` [DBA2+]: the values for the pKa1 in data set [3] (absence of glucose) and in data set [3] (presence of 200 mM glucose) were 9.0 and 5.9, respectively. Moreover, the values for the pKa2 in data set [3] (absence of glucose) and in data set [3] (presence of 200 mM glucose) were 9.7 and 6.9, respectively. Moreover, the pKa turned out to be 9.4 in [3] (absence of glucose, read-out: pKa) and 6.3 in data set [3] (setting [12]). Further, the “change in pKa for DBA2+ and DBA-G” value in [3] (upon glucose binding, centers around pH 7.4) is about 3 unit. Besides, the Kd in data set [4] is 900 ± 100 µM; in [5] it was 1700 µM; in data set [5] (listed as Formula III) it was about 1700 µM; in data set [6] it was 16000 µM; in [6] (listed as Formula III) it was about 16000 µM. Also, the “Kd value for maltose” value in data set [7] was “could not be determined due to their low affinity”. Further, in [8], the “Kd value for sucrose” value is given as “could not be determined due to their low affinity”. For the same molecule, in data set [9], the “Kd value for lactose” value is listed as “could not be determined due to their low affinity”.
